Where two headings read alike, the source gives them in different places.
Experiments:
[1] = test system: Cotton Aphid (aphis gossypii), mixed life stages; assay: Cotton aphid (Aphis gossypii), mixed life stages, leaf-dip test on cotton plants; type: in vivo; conditions: 120 h, read-out: mortality of cotton aphid in comparison with untreated controls
Description: (§1) The active compounds were formulated in a mixture of 50 vol.-% acetone:50 vol.-% water. A nonionic surfactant (Kinetic®) was included in the solution at a volume of 0.01% v/v.
(§2) In the following tests, the formulated solutions of the active compounds were diluted to an active ingredient concentration of 300 ppm and the diluted solutions were applied in the below mentioned tests.
II.1 Cotton Aphid (aphis gossypii), Mixed Life Stages
Cotton plants at the cotyledon stage were infested prior to treatment by placing a heavily infested leaf from the main aphid colony on top of each cotyledon. The aphids were allowed to transfer overnight and the host leaf was removed. The infested cotyledons were then dipped and agitated in the test solution for 3 seconds and allowed to dry in a fume hood. Test plants were maintained under fluorescent lighting in a 24-hr photoperiod at 25° C. and 20-40% relative humidity. Aphid mortality on the treated plants, relative to mortality on untreated check plants, was determined after 5 days.

[2] = test system: Green Peach Aphid (Myzus persicae), mixed life stages; assay: Green peach aphid (Myzus persicae), mixed life stages, leaf-dip test on bell pepper plants; type: in vivo; conditions: 120 h, read-out: mortality of green peach aphid in comparison with untreated controls
Description: as §1, §2
II.2 Green Peach Aphid (Myzus persicae), Mixed Life Stages
Bell pepper plants at the first true-leaf stage were infested prior to treatment by placing heavily infested leaves from the main aphid colony on top of the treatment plants. The aphids were allowed to transfer overnight to accomplish an infestation of 30-40 aphids per plant and the host leaves were removed. The infested leaves of the test plants were then dipped and agitated in the test solution for 3 seconds and allowed to dry in a fume hood. Test plants were maintained under fluorescent lighting in a 24-hr photoperiod at 25° C. and 20-40% relative humidity. Aphid mortality on the treated plants, relative to mortality on untreated check plants, was determined after 5 days.

Bean Aphid (Aphis fabae) = assay: Bean aphid (Aphis fabae), plant-dip test on nasturtium plants; type: in vivo; conditions: 72 h, read-out: mortality of bean aphid in comparison with untreated controls
Description: as §1, §2
11.3 Bean Aphid (Aphis fabae)
Nasturtium plants grown in Metro mix in the 1st leaf-pair stage (variety ‘Mixed Jewel’) were infested with approximately 2-30 laboratory-reared aphids by placing infested cut plants on top of the test plants. The cut plants were removed after 24 hr. Each plant was dipped into the test solution to provide complete coverage of the foliage, stem, protruding seed surface and surrounding cube surface and allowed to dry in the fume hood. The treated plants were kept at about 25° C. with continuous fluorescent light. Aphid mortality is determined after 3 days.

[3] = 300 ppm, infested cotton cotyledons dipped 3 seconds, after 5 days
[4] = 300 ppm, infested bell pepper leaves dipped 3 seconds, after 5 days
[5] = 300 ppm, infested nasturtium plants dipped, after 3 days

SMILES | mortality at 300 ppm [1, 3] [%] | mortality at 300 ppm [2, 4] [%] | mortality at 300 ppm (Bean Aphid (Aphis fabae); [5]) [%] | other results
CCN(C(=O)Nc1ccccc1)S(=O)(=O)c1cccc(C)c1C#N [Example 22, N-Ethyl-N-(2-cyano-3-methyl-benzenesulfonyl)-N′-phenyl urea] | ≥ 86 | ≥ 86 |  | 
C#CCN(C(C)=O)S(=O)(=O)c1cccc(C)c1C#N [Example 7] | ≥ 86 | ≥ 86 | ≥ 86 | 
CO/C(C)=N\S(=O)(=O)c1cccc(OC(F)F)c1C#N [Example 36] | ≥ 86 | ≥ 86 | ≥ 86 | 
CCNC(=O)N(CC)S(=O)(=O)c1cccc(C)c1C#N [Example 21] | ≥ 86 | ≥ 86 | ≥ 86 | 
CCN(C(=O)Oc1ccccc1)S(=O)(=O)c1cccc(C)c1C#N [Example 26] |  |  |  | mortality at 300 ppm [1]: ≥ 86%; mortality at 300 ppm (Bean Aphid (Aphis fabae)): ≥ 86%
CCN(C(C)=O)S(=O)(=O)c1c(F)ccc(OC)c1C#N [Example 16] | ≥ 86 | ≥ 86 |  | 
CCOC(=NS(=O)(=O)c1cccc(C)c1C#N)OCC [Example 31] | ≥ 86 | ≥ 86 | ≥ 86 | 
N#Cc1c(OC(F)F)cccc1S(=O)(=O)n1cccc1 [Example 42] | ≥ 86 | ≥ 86 | ≥ 86 | 
Cc1cccc(S(=O)(=O)NC(=O)C(C)C)c1C#N [Example 14] | ≥ 86 | ≥ 86 | ≥ 86 | 
Cc1cccc(S(=O)(=O)n2cncn2)c1C#N [Example 47, 2-Methyl-6-([1.2.4]-triazole-1-sulfonyl)-benzonitrile] |  |  |  | melting point: 142 to 144 °C
COc1cccc(S(=O)(=O)N(OC)C(C)=O)c1C#N [Example 3] | ≥ 86 | ≥ 86 |  | 
COC(=NS(=O)(=O)c1cccc(C)c1C#N)OC [Example 32, 2-Cyano-N-dimethoxymethylene-3-methyl-benzenesulfonamide] | ≥ 86 |  | ≥ 86 | 
CCN(C(C)=O)S(=O)(=O)c1cccc(OC(F)F)c1C#N [Example 15] | ≥ 86 | ≥ 86 | ≥ 86 | 
CCC(=O)NS(=O)(=O)c1cccc(C)c1C#N [Example 13] | ≥ 86 | ≥ 86 | ≥ 86 | 
C#CCN(C(=O)C(F)(F)F)S(=O)(=O)c1cccc(C)c1C#N [Example 11] | ≥ 86 | ≥ 86 | ≥ 86 | 
Cc1cccc(S(=O)(=O)NC(=O)OCc2ccccc2)c1C#N [Example 28, N-(Benzyloxycarbonyl)-2-cyano-3-methyl-benzenesulfonamide] |  |  |  | mortality at 300 ppm [1]: ≥ 86%; mortality at 300 ppm [2]: ≥ 86%
Cc1cccc(S(=O)(=O)N(C(=O)C(F)(F)F)C(C)C)c1C#N [Example 12] | ≥ 86 | ≥ 86 | ≥ 86 | 
N#Cc1c(OC(F)F)cccc1S(=O)(=O)N=S1CCCC1 [Example 39] | ≥ 86 | ≥ 86 |  | 
Cc1cccc(S(=O)(=O)N2CCCC2=O)c1C#N [Example 18, 2-Methyl-6-(2-oxo-pyrrolidine-1-sulfonyl)benzonitrile] | ≥ 86 |  | ≥ 86 | 
CCC(C)NC(=O)N(CC)S(=O)(=O)c1cccc(C)c1C#N (centres unmarked) [Example 24] | ≥ 86 |  |  | 
Cc1cccc(S(=O)(=O)n2cccn2)c1C#N [Example 46, 2-Methyl-6-(pyrazole-1-sulfonyl)-benzonitrile] |  |  |  | melting point: 99 to 104 °C
C#CCN(C(=O)CC)S(=O)(=O)c1cccc(C)c1C#N [Example 8] | ≥ 86 | ≥ 86 | ≥ 86 | 
CCN(C(=O)NC(C)C)S(=O)(=O)c1cccc(C)c1C#N [Example 23] | ≥ 86 | ≥ 86 | ≥ 86 | 

SMILES | mortality at 300 ppm [1, 3] [%] | mortality at 300 ppm [2, 4] [%] | mortality at 300 ppm (Bean Aphid (Aphis fabae); [5]) [%] | other results
Cc1cccc(S(=O)(=O)n2ccc(CO)c2)c1C#N [Example 43] | ≥ 86 | ≥ 86 |  | 
C=CC(=O)N(CC)S(=O)(=O)c1cccc(C)c1C#N [Example 10] | ≥ 86 |  |  | 
Cc1cccc(S(=O)(=O)N2CCCCC2=O)c1C#N [Example 19] | ≥ 86 |  |  | 
Cc1cccc(S(=O)(=O)n2cccc2)c1C#N [Example 41, 2-Methyl-6-(pyrrole-1-sulfonyl)-benzonitrile] | ≥ 86 | ≥ 86 | ≥ 86 | 
CCN(C(C)=O)S(=O)(=O)c1cccc(C)c1C#N [Example 2, N-Acetyl-N-ethyl-2-cyano-3-methyl-benzene-sulfonamide] | ≥ 86 | ≥ 86 | ≥ 86 | 
CCOC(=NS(=O)(=O)c1cccc(OC(F)F)c1C#N)OCC [Example 33] | ≥ 86 | ≥ 86 | ≥ 86 | 
CO/C(C)=N\S(=O)(=O)c1cccc(C)c1C#N [Example 34, 2-Cyano-N-(1-methoxyethylidene)-3-methyl-benzenesulfonamide] | ≥ 86 | ≥ 86 |  | 
C/C(=N\S(=O)(=O)c1cccc(C)c1C#N)C(C)(C)C [Example 37, 2-Cyano-3-methyl-N-(1,2,2-trimethyl-propylidene)-benzenesulfonamide] | ≥ 86 | ≥ 86 | ≥ 86 | 
Cc1cccc(S(=O)(=O)N=S(C(C)C)C(C)C)c1C#N [Example 40] | ≥ 86 | ≥ 86 |  | 
CC(=O)NS(=O)(=O)c1cccc(C)c1C#N [Example 1] | ≥ 86 | ≥ 86 |  | 
CCN(C(=O)c1ccccc1)S(=O)(=O)c1cccc(C)c1C#N [Example 17] | ≥ 86 |  | ≥ 86 | 
CC(=O)OCc1ccn(S(=O)(=O)c2cccc(C)c2C#N)c1 [Example 44] | ≥ 86 | ≥ 86 | ≥ 86 | 
C=CCOC(=O)N(CC)S(=O)(=O)c1cccc(C)c1C#N [Example 27] |  |  |  | mortality at 300 ppm [1]: ≥ 86%; mortality at 300 ppm (Bean Aphid (Aphis fabae)): ≥ 86%; mortality at 300 ppm [2]: ≥ 86%
CCO/C(=N\S(=O)(=O)c1cccc(C)c1C#N)NC(C)(C)C [Example 30] |  |  | ≥ 86 | 
Cc1cccc(S(=O)(=O)NC(=O)Oc2ccccc2)c1C#N [Example 25] |  |  |  | mortality at 300 ppm [1]: ≥ 86%; mortality at 300 ppm (Bean Aphid (Aphis fabae)): ≥ 86%
Cc1cccc(S(=O)(=O)N=S2CCCC2)c1C#N [Example 38, 2-Cyano-3-methyl-N-(tetrahydro-thiphophen-1-ylidene)benzenesulfonamide] | ≥ 86 | ≥ 86 | ≥ 86 | 
CCO/C(=N\S(=O)(=O)c1cccc(C)c1C#N)NC(C)C [Example 29, N-(Isopropylamino-ethoxy-methylene)-2-cyano-3-methyl-benzenesulfonamide] |  |  |  | melting point: 139 to 142 °C
CC(=O)N(C(C)C)S(=O)(=O)c1cccc(C)c1C#N [Example 9] | ≥ 86 | ≥ 86 |  | 
CCN(C(=O)C(F)(F)F)S(=O)(=O)c1cccc(C)c1C#N [Example 6] | ≥ 86 | ≥ 86 | ≥ 86 | 
Cc1cccc(S(=O)(=O)n2ccc(Br)c2)c1C#N [Example 45, 2-Methyl-6-(3-bromo-pyrrole-1-sulfonyl)-benzonitrile] | ≥ 86 | ≥ 86 |  | 
Cc1cccc(S(=O)(=O)n2ccnc2)c1C#N [Example 48, 2-Methyl-6-(imidazole-1-sulfonyl)-benzonitrile] | ≥ 86 | ≥ 86 |  | 
CCC(=O)N(CC)S(=O)(=O)c1cccc(C)c1C#N [Example 5] | ≥ 86 | ≥ 86 | ≥ 86 | 
Cc1cccc(S(=O)(=O)/N=C/N(C)C)c1C#N [Example 35, 2-Cyano-3-methyl-N-dimethylaminomethylene-benzenesulfonamide] | ≥ 86 | ≥ 86 | ≥ 86 | 
